The values that follow come from PubChem BioAssay AID1996.

Converted amounts (≈) assume the structure as drawn.

By kinetic solubility is commonly meant the concentration staying in solution when a stock, usually in DMSO, is diluted into the medium.

For this data set the following is noted: buffer; pH 7.4; 200.0 µM.
In turn, `O=C(Cn1cc(C(F)(F)F)ccc1=O)OCC(=O)c1ccc[nH]1` displayed a solubility (kinetic) above 49.2 µg/mL.
With `C/C(CC(=O)Nc1ccc(Cl)cc1C(F)(F)F)=N\NC(N)=S` the figure was above 52.9 µg/mL.
As to `COc1ccc(CN(C)C(=O)c2ccc(NS(=O)(=O)c3ccc4[nH]c(=O)[nH]c4c3)cc2)c(OC)c1OC`, the kinetic solubility is above 79 µg/mL.
`CCOC(=O)N1CCN(C/C(Cl)=C/c2ccccc2)CC1` displayed a kinetic solubility of 29.8 µg/mL (≈ 96.5 µM).
The result for `O=C(c1ccccc1)c1cc2c(cc1[N+](=O)[O-])OCCO2` reads 7.3 µg/mL (≈ 25.6 µM); that for `Cc1ccc(C(=O)OCC(=O)NC2CCCCCC2)c(C)c1`, 4.6 µg/mL (≈ 15.2 µM).
The result for `CCCC(=O)OCC(=O)Nc1ccc([N+](=O)[O-])cc1C#N` reads above 43.7 µg/mL; that for `COc1ccc2c(c1OC)CN1CCc3cc4c(cc3C1C2)OCO4` (stereo unspecified), 2.1 µg/mL (≈ 6.19 µM); that for `CC(=O)c1ccc(NC(=O)c2cccc(NC(=O)c3ccccc3)c2)cc1`, 0.7 µg/mL (≈ 1.95 µM).
Turning to `O=C(COC(=O)C1CCC1)NCc1ccc(Cl)cc1Cl`, the solubility (kinetic) is above 47.4 µg/mL.
With `CC(C)c1ccc(C(O)P(=O)(OCc2ccccc2)c2ccc(N(C)C)cc2)cc1` (stereo unspecified) the figure was 6.2 µg/mL (≈ 14.6 µM); with `O=C(OC1CCOC1=O)c1ccc(N2CCCC2)c([N+](=O)[O-])c1` (stereo unspecified), above 48 µg/mL.
With `Cc1ccsc1C(=O)Nc1nc2ccccc2[nH]1` the figure was 2 µg/mL (≈ 7.77 µM); with `CCOc1ccc(N2CC(C(=O)NC3CCSC3=O)CC2=O)cc1` (stereo unspecified), 42.6 µg/mL (≈ 122 µM); with `Cc1noc(C)c1S(=O)(=O)Nc1cccc(CO)c1`, above 42.3 µg/mL.
Take `COc1ccc(NC(=S)NC(=NS(=O)(=O)c2ccc(Cl)cc2)c2ccccc2)cc1`: the solubility (kinetic) was 47.3 µg/mL (≈ 103 µM).
With `CCOc1ccc(S(=O)(=O)N2CCN(C(=O)C3CC3C)CC2)cc1` (stereo unspecified) the figure was 51.7 µg/mL (≈ 147 µM); with `Cc1cc(OCCN2CCOCC2)ccc1Cl`, 25.9 µg/mL (≈ 101 µM).
In turn, `CC(OC(=O)c1ccc([N+](=O)[O-])cc1)C(=O)NCC1CCCCC1` (stereo unspecified) returned a solubility (kinetic) of 5.6 µg/mL (≈ 16.7 µM).
The result for `Cc1sc2ncnc(NC(C)C(=O)O)c2c1C` (stereo unspecified) reads above 37.7 µg/mL; that for `COc1ccc(C)cc1NC(=O)CSCc1ccccc1C`, 8.6 µg/mL (≈ 27.3 µM); that for `Cc1ccc(S(=O)(=O)CC(=O)Nc2nc3ccccc3s2)cc1`, 1.3 µg/mL (≈ 3.75 µM).
The compound `COc1ccc(Nc2ccc(C(F)(F)F)cc2[N+](=O)[O-])cn1` yielded a kinetic solubility of 1.8 µg/mL (≈ 5.75 µM).
With `O=C(CNC(c1ccccc1)c1ccccc1)Nc1ccccc1F` the figure was below 0.4 µg/mL; with `O=C(Cc1ccc(-c2ccccc2)cc1)NC1CCCC1`, below 0.6 µg/mL.
With `O=C(Nc1ccc(F)c(Cl)c1)C1CC2CCC1C2` (stereo unspecified) the figure was 2.8 µg/mL (≈ 10.5 µM); with `CC(=O)c1cc(C#N)c(N2CCN(c3ccccc3)CC2)nc1C`, 0.2 µg/mL (≈ 0.624 µM); with `O=C(O)CCCCNS(=O)(=O)/C=C/c1ccccc1`, above 42.5 µg/mL.
The result for `COc1ccc(NC(=O)C2CC(c3c(F)cccc3Cl)=NO2)cc1` (stereo unspecified) reads 40.8 µg/mL (≈ 117 µM).
In turn, `COc1ccc(NC(=S)NC2CCCCC2)cn1` displayed a solubility (kinetic) above 39.8 µg/mL.
With `Cc1ccc(NC(=O)CN(C)C(=S)NC2CC2)cc1` the figure was above 41.6 µg/mL; with `O=S(=O)(c1ccc(Cl)nc1)N1CCCC1`, above 37 µg/mL; with `Cc1ccc(NC(=O)c2cc(F)c(F)cc2Cl)nc1`, 12.8 µg/mL (≈ 45.3 µM).
The result for `Cc1cccc(NC(=S)NC(=O)c2ccc(-c3ccccc3)cc2)n1` reads 0.5 µg/mL (≈ 1.44 µM); that for `C/C(=N/O)c1no[n+]([O-])c1/C(C)=N\O`, above 30 µg/mL.
The compound `CCCC(=O)Nc1sc(C)c(C)c1C#N` registered a kinetic solubility of 13.6 µg/mL (≈ 61.2 µM).
The result for `O=c1[nH]c(=S)[nH]c2c1CN(Cc1ccc(F)cc1)CC2` reads 28.6 µg/mL (≈ 98.2 µM); that for `COc1ccc(NS(=O)(=O)c2cccc(C(=O)NCC(c3cccs3)N3CCOCC3)c2)cc1` (stereo unspecified), 71.3 µg/mL (≈ 142 µM).
`Cc1ccc(OCC(=O)Nc2ccc(S(=O)(=O)N3CCCC3)cc2)cc1` showed a solubility (kinetic) of 0.5 µg/mL (≈ 1.34 µM).
The result for `CC1CN(c2nc(Nc3ccccc3F)nc(N)c2[N+](=O)[O-])CC(C)O1` (stereo unspecified) reads above 54.4 µg/mL.
With `COc1ccc(OCC(=O)N(C)CC2COc3ccccc3O2)cc1` (stereo unspecified) the figure was above 51.5 µg/mL; with `O=c1c2ccccc2nc(/C=C/c2cc(Br)ccc2O)n1CCO`, 6.1 µg/mL (≈ 15.8 µM).
`Cl.N=c1ccccn1Cc1ccccc1` gave a kinetic solubility above 33.1 µg/mL.
`Cc1nsc(N)c1C(=O)O`: the kinetic solubility was above 23.7 µg/mL.
The result for `CCC1(C)Cc2c(sc3[nH]c(=S)[nH]c(=S)c23)CO1` (stereo unspecified) reads 27.7 µg/mL (≈ 92.8 µM); that for `C#CCN1C(=O)S/C(=C\c2ccc(-c3ccc(C(=O)O)cc3C)o2)C1=O`, 35 µg/mL (≈ 95.3 µM).
The result for `CCCN(CC(=O)Nc1ccccc1C)C(=O)CCl` reads above 42.4 µg/mL; that for `Clc1ccccc1OCCCn1ccnc1`, 26.4 µg/mL (≈ 112 µM); that for `c1ccc(CCCc2nc(-c3cccnc3)no2)cc1`, 30.5 µg/mL (≈ 115 µM).
In turn, `N#Cc1ccc(COC(=O)c2cnc(Cl)c(Cl)c2)cc1` showed a solubility (kinetic) of 1.4 µg/mL (≈ 4.56 µM).
The result for `Cc1cc([N+](=O)[O-])nn1CC(=O)N1CCN(Cc2ccccc2)CC1` reads above 51.5 µg/mL.
